Measured values published in ChEMBL document CHEMBL5230160, “Chemotherapeutics for Toxoplasma gondii: Molecular Biotargets, Binding Modes, and Structure-Activity Relationship Investigations” (J Med Chem, 2021).
In brackets after ≈: the same amount, converted by molar mass.

Columns and labels:
Toxoplasma gondii [1] = experiment: Antiparasitic activity against Toxoplasma gondii infected in African green monkey Vero cells assessed as parasitic growth inhibition incubated for 24 hrs by PCR method; type: functional, organism-based
Toxoplasma gondii [2] = experiment: Antiparasitic activity against Toxoplasma gondii tachyzoites; type: functional, organism-based; settings: Toxoplasma gondii; read-out: EC50
Toxoplasma gondii [3] = experiment: Antiparasitic activity against Toxoplasma gondii infected in mouse at 50 mg/kg assessed as reduction in parasitic growth; type: functional; parameters: scale not given: the % may be the effect or the level left
Toxoplasma gondii [4] = experiment: Antiparasitic activity against Toxoplasma gondii RH tachyzoites infected in human foreskin fibroblast at 1 uM incubated for 24 hrs by phase-contrast microscopy relative to control; type: functional
[5] = Selectivity index, ratio of IC50 for inhibition of Toxoplasma gondii HDAC3 to IC50 for antiparasitic activity against Toxoplasma gondii infected in HFF cells; type: toxicity, cell-based; settings: human
Toxoplasma gondii [6] = experiment: Antiparasitic activity against Toxoplasma gondii infected in HFF cells assessed as parasitic growth inhibition by MTT assay; type: functional, organism-based
Toxoplasma gondii [7] = experiment: Antiparasitic activity against Toxoplasma gondii RH tachyzoites infected in mouse BV-2 cells assessed as parasitic growth inhibition at 100 ug/ml by inverted fluorescence microscopic analysis relative to control; type: functional; parameters: scale not given: the % may be the effect or the level left; settings: dose 100 µg/ml
Toxoplasma gondii [8] = experiment: Antiparasitic activity against Toxoplasma gondii RH tachyzoites infected in HFF cells in presence of CPRG by crystal violet staining based analysis; type: functional, organism-based
[9] = Inhibition of Toxoplasma gondii GST-taggged IF2Kalpha in presence of ATP by ADP-Glo kinase assay
Toxoplasma gondii [10] = experiment: Antiparasitic activity against Toxoplasma gondii type I infected in human foreskin fibroblast incubated for 24 hrs by Hoechst staining based microscopic analysis; type: functional, organism-based
Toxoplasma gondii [11] = experiment: Antiparasitic activity against Toxoplasma gondii type II infected in human foreskin fibroblast incubated for 24 hrs by Hoechst staining based microscopic analysis; type: functional, organism-based
Histone deacetylase 1 = Histone deacetylase 1 (Homo sapiens, UniProt Q13547); experiment: Inhibition of HDAC1 in human HeLa nuclear extract incubated for 30 mins by fluorescence based analysis; type: cell-free
Sequence of Histone deacetylase 1 (Q13547 whole entry): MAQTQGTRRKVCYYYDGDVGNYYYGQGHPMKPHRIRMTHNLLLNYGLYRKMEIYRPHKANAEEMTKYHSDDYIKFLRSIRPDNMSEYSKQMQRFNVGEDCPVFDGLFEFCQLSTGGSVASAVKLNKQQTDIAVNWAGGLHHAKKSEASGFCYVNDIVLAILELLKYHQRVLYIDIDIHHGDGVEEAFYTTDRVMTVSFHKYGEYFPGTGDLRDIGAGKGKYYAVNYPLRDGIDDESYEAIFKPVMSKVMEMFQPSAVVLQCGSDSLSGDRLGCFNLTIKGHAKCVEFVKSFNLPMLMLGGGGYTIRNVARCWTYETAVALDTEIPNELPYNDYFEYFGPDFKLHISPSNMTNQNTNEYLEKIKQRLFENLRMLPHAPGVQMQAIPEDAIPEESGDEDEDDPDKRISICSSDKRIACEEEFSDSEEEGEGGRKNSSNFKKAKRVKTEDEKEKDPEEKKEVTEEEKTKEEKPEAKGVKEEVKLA

[12] = Inhibition of Toxoplasma gondii HDAC3

C=CCc1cc(OC)c(O[C@@H](C)[C@H](O)c2ccc(O)c(OC)c2)c(OC)c1 gave an EC50 (Toxoplasma gondii [1]) of 32.4 µg/mL (≈ 86.6 µM).

With C/C=C/c1cc(OC)c2c(c1)[C@@H](C)[C@H](c1ccc3c(c1)OCO3)O2 [LICARINE B] the EC50 (Toxoplasma gondii [2]) was 14 µg/mL (≈ 43.3 µM) and the Activity (Toxoplasma gondii [3]) was 90%.

For CCCCCCCCCCCCc1c(C)n(O)c2ccc(OCCN(C)C)cc2c1=O, the Activity (Toxoplasma gondii [4]) was 38%.

In the case of CC[C@]1(C)NC(=O)[C@H](CCCCCC(=O)[C@@H](C)OC(=S)Oc2ccccc2)NC(=O)[C@H]2C[C@H](C)CN2C(=O)[C@H](Cc2ccccc2)NC1=O, the “Ratio IC50” value [5] is reported as 47.7 and the EC50 (Toxoplasma gondii [6]) is reported as 11.3 nM.

For CC(C)=CCC[C@](C)(O)[C@H]1CC[C@]2(C)[C@@H]1[C@H](O)C[C@@H]1[C@@]3(C)CC[C@H](O[C@@H]4O[C@H](CO)[C@@H](O)[C@H](O)[C@H]4O)C(C)(C)[C@@H]3CC[C@]12C [GINSENOSIDE RH2], the Activity (Toxoplasma gondii [7]) was 63.4%.

In the case of Cn1cc(-c2ccc3c(c2)CCN3C(=O)Cc2cccc(C(F)(F)F)c2)c2c(N)ncnc21, the IC50 (Toxoplasma gondii [8]) is reported as 620 nM and the IC50 [9] is reported as 0.4 nM.

COc1cccc(CC(=O)Nc2ccc(C(=O)NO)cc2)c1 showed an IC50 (Toxoplasma gondii [10]) of 350 nM, an IC50 (Toxoplasma gondii [11]) of 2270 nM and an IC50 (Histone deacetylase 1) of 495 nM.

For CC[C@]1(C)NC(=O)[C@H](CCCCCC(=O)[C@@H](C)O)NC(=O)[C@H]2CCCN2C(=O)[C@H](Cc2ccccc2)NC1=O, the IC50 [12] was 22 nM.
